Test results as given in ChEMBL document CHEMBL1795224, “Synthesis, in vitro antioxidant, anthelmintic and molecular docking studies of novel dichloro substituted benzoxazole-triazolo-thione derivatives” (2011).
Calls of active or inactive are those of the source. The calls are words filed in the database; no cut-off is given here.

Legend:
Format in all cases: functional
Metaphire posthuma [1] = test: Anthelmintic activity against Pheretima posthuma assessed as death time
Metaphire posthuma [2] = test: Anthelmintic activity against Pheretima posthuma assessed as death time at 1 %
[3] = Antioxidant activity assessed as ascorbic acid equivalent antioxidant capacity at 50 to 100 ug after 90 mins by phosphomolybdenum method
[4] = Antioxidant activity assessed as potassium ferric cyanide ion reducing power at 50 to 100 ug after 20 mins
[5] = tested on: Radical scavenging activity; test: Antioxidant activity assessed as DPPH free radical scavenging activity at 20 ug/4ml after 30 mins
Metaphire posthuma [6] = test: Anthelmintic activity against Pheretima posthuma assessed as time taken for complete paralysis
Metaphire posthuma [7] = test: Anthelmintic activity against Pheretima posthuma assessed as time taken for complete paralysis at 1 %
Metaphire posthuma [8] = test: Anthelmintic activity against Pheretima posthuma assessed as time taken for complete paralysis at 2 %
Metaphire posthuma [9] = test: Anthelmintic activity against Pheretima posthuma assessed as time taken for complete paralysis at 3 %
Metaphire posthuma [10] = test: Anthelmintic activity against Pheretima posthuma assessed as death time at 2 %
Metaphire posthuma [11] = test: Anthelmintic activity against Pheretima posthuma assessed as death time at 3 %

Work on `CCCSc1ccc2[nH]c(NC(=O)OC)nc2c1` [ALBENDAZOLE] yielded a Time (Metaphire posthuma [1]) of 5.37 min and a Time (Metaphire posthuma [2]) of 7.2 min.
In the case of `O=[N+]([O-])c1ccc(NCn2nc3oc4c(Cl)cc(Cl)cc4n3c2=S)cc1`, the Activity [3] is reported as “Active”, the Activity [4] is reported as “Active” and the Activity [5] is reported as 18%. For the same molecule, the Activity (Metaphire posthuma [6]) was “Dose-dependent effect”, the Time (Metaphire posthuma [1]) was 7.95 min and the Time (Metaphire posthuma [7]) was 6.58 min. For the same molecule, the Time (Metaphire posthuma [8]) was 5.97 min, the Activity (Metaphire posthuma [9]) was “Dose-dependent effect” and the Time (Metaphire posthuma [2]) was 8.33 min. The Time (Metaphire posthuma [10]) was 7.07 min and the Time (Metaphire posthuma [11]) was 6.64 min.
In the case of `CCOC(=O)CSc1nnc2oc3c(Cl)cc(Cl)cc3n12`, the Activity [3] is reported as “Active”, the Activity [4] is reported as “Active” and the Activity [5] is reported as 65.7%. The Activity (Metaphire posthuma [6]) was “Dose-dependent effect”, the Time (Metaphire posthuma [1]) was 5.92 min and the Time (Metaphire posthuma [7]) was 4.74 min. The Time (Metaphire posthuma [8]) was 4 min, the Activity (Metaphire posthuma [9]) was “Dose-dependent effect” and the Time (Metaphire posthuma [2]) was 6.13 min. It also gave a Time (Metaphire posthuma [10]) of 5.95 min and a Time (Metaphire posthuma [11]) of 4.85 min.
`Cc1cc(C(C)(C)C)c(O)c(C(C)(C)C)c1` showed an Activity [5] of 16.2%.
In the case of `CCOC(=O)CSc1nc2cc(Cl)cc(Cl)c2o1`, the Activity [4] is reported as “inactive”, the Activity [5] is reported as 9.49% and the Activity (Metaphire posthuma [6]) is reported as “Dose-dependent effect”. It also gave a Time (Metaphire posthuma [1]) of 6.61 min, a Time (Metaphire posthuma [7]) of 5.87 min and a Time (Metaphire posthuma [8]) of 5.28 min. For the same molecule, the Activity (Metaphire posthuma [9]) was “Dose-dependent effect”, the Time (Metaphire posthuma [2]) was 7.23 min and the Time (Metaphire posthuma [10]) was 6.37 min. The Time (Metaphire posthuma [11]) was 5.75 min.
For `NNc1nc2cc(Cl)cc(Cl)c2o1`, the Activity [3] was “Active”, the Activity [4] was “Active” and the Activity [5] was 81.5%. For the same molecule, the Activity (Metaphire posthuma [6]) was “Dose-dependent effect”, the Time (Metaphire posthuma [1]) was 4.42 min and the Time (Metaphire posthuma [7]) was 3.57 min. For the same molecule, the Time (Metaphire posthuma [8]) was 3.08 min, the Activity (Metaphire posthuma [9]) was “Dose-dependent effect” and the Time (Metaphire posthuma [2]) was 4.77 min. It also gave a Time (Metaphire posthuma [10]) of 4.22 min and a Time (Metaphire posthuma [11]) of 3.23 min.
In the case of `Sc1nc2cc(Cl)cc(Cl)c2o1`, the Activity [4] is reported as “inactive”, the Activity [5] is reported as 32.1% and the Activity (Metaphire posthuma [6]) is reported as “Dose-dependent effect”. It also gave a Time (Metaphire posthuma [1]) of 8.22 min, a Time (Metaphire posthuma [7]) of 7.27 min and a Time (Metaphire posthuma [8]) of 3.2 min. For the same molecule, the Activity (Metaphire posthuma [9]) was “Dose-dependent effect”, the Time (Metaphire posthuma [2]) was 9.05 min and the Time (Metaphire posthuma [10]) was 7.83 min. The Time (Metaphire posthuma [11]) was 5.95 min.
For `S=c1[nH]nc2oc3c(Cl)cc(Cl)cc3n12`, the Activity [3] was “Active”, the Activity [4] was “Active” and the Activity [5] was 74.8%. For the same molecule, the Activity (Metaphire posthuma [6]) was “Dose-dependent effect”, the Time (Metaphire posthuma [1]) was 5.48 min and the Time (Metaphire posthuma [7]) was 4.29 min. The Time (Metaphire posthuma [8]) was 3.82 min, the Activity (Metaphire posthuma [9]) was “Dose-dependent effect” and the Time (Metaphire posthuma [2]) was 6.48 min. It also gave a Time (Metaphire posthuma [10]) of 5.49 min and a Time (Metaphire posthuma [11]) of 4.12 min.
